Experimental data reported in PubChem BioAssay AID330 (DTP/NCI, 2004).
“And” between values parts separate entries of the source, which are not always exact repeats. Identical values can stand only once. Toxic doses and inconclusive results are not listed. The calls were made as follows: active = survival T/C of 150% or more; inactive = T/C below 125% in these data.

Test system: P388 leukemia ip, CD2F1 mice, survival T/C
Experiment: NCI In Vivo Anticancer Drug Screen. Data for tumor model P388 Leukemia (intraperitoneal) in CD2F1 (CDF1) mice
Details: endpoint: median survival time, higher = longer survival
How it was run: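 Mice carrying the transplanted tumor received test compound or vehicle. Survival was recorded in each group, and the value is the treated-group measurement divided by that of the vehicle-treated control group.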

[1] = dose: 100.0 mg/kg/injection, schedule: Q04DX003 (ip), vehicle: saline
[2] = dose: 200.0 mg/kg/injection, schedule: Q04DX003 (ip), vehicle: saline
[3] = dose: 50.0 mg/kg/injection, schedule: Q01DX009 (ip), vehicle: saline
[4] = dose: 100.0 mg/kg/injection, schedule: Q01DX009 (ip), vehicle: saline
[5] = dose: 200.0 mg/kg/injection, schedule: Q01DX009 (ip), vehicle: saline
[6] = dose: 60.0 mg/kg/injection, schedule: Q01DX005 (ip), vehicle: saline with Tween-80
[7] = dose: 120.0 mg/kg/injection, schedule: Q01DX005 (ip), vehicle: saline with Tween-80
[8] = dose: 240.0 mg/kg/injection, schedule: Q01DX005 (ip), vehicle: saline with Tween-80
[9] = dose: 100.0 mg/kg/injection, schedule: Q04DX003 (ip), vehicle: saline with Tween-80
[10] = dose: 200.0 mg/kg/injection, schedule: Q04DX003 (ip), vehicle: saline with Tween-80
[11] = dose: 100.0 mg/kg/injection, schedule: Q04DX002 (ip), vehicle: saline with Tween-80
[12] = dose: 200.0 mg/kg/injection, schedule: Q04DX002 (ip), vehicle: saline with Tween-80
[13] = dose: 60.0 mg/kg/injection, schedule: Q01DX005 (ip), vehicle: Klucel (hydroxypropylcellulose) (HPC)
[14] = dose: 120.0 mg/kg/injection, schedule: Q01DX005 (ip), vehicle: Klucel (hydroxypropylcellulose) (HPC)
[15] = dose: 240.0 mg/kg/injection, schedule: Q01DX005 (ip), vehicle: Klucel (hydroxypropylcellulose) (HPC)
[16] = dose: 50.0 mg/kg/injection, schedule: Q01DX005 (ip), vehicle: saline with Tween-80
[17] = dose: 100.0 mg/kg/injection, schedule: Q01DX005 (ip), vehicle: saline with Tween-80
[18] = dose: 200.0 mg/kg/injection, schedule: Q01DX005 (ip), vehicle: saline with Tween-80
[19] = dose: 50.0 mg/kg/injection, schedule: Q01DX005 (ip), vehicle: Klucel (hydroxypropylcellulose) (HPC)
[20] = dose: 100.0 mg/kg/injection, schedule: Q01DX005 (ip), vehicle: Klucel (hydroxypropylcellulose) (HPC)
[21] = dose: 200.0 mg/kg/injection, schedule: Q01DX005 (ip), vehicle: Klucel (hydroxypropylcellulose) (HPC)

Measured: T/C

Cc1cn(C2CC(O)C(CNC(=O)CCl)O2)c(=O)[nH]c1=O (stereo not drawn)
inactive: dose: 50.0 mg/kg/injection, schedule: Q01DX005 (ip), vehicle: saline 105 % of control | dose: 100.0 mg/kg/injection, schedule: Q01DX005 (ip), vehicle: saline 98 % of control | dose: 200.0 mg/kg/injection, schedule: Q01DX005 (ip), vehicle: saline 109 % of control

O=[N+]([O-])c1cccc(SNSc2cccc([N+](=O)[O-])c2)c1
inactive: dose: 100.0 mg/kg/injection, schedule: Q04DX002 (ip), vehicle: Klucel (hydroxypropylcellulose) (HPC) 90 % of control | dose: 200.0 mg/kg/injection, schedule: Q04DX002 (ip), vehicle: Klucel (hydroxypropylcellulose) (HPC) 88 % of control | dose: 400.0 mg/kg/injection, schedule: Q04DX002 (ip), vehicle: Klucel (hydroxypropylcellulose) (HPC) 94 % of control

Cc1ccc2c(c1)C(=O)C(CN1CCCCC1)CO2 (stereo not drawn)
inactive: [1] 108 % of control | [2] 108 % of control

Cc1cccc(/N=C/c2ccccc2O)n1
inactive: dose: 50.0 mg/kg/injection, schedule: Q01DX009 (ip), vehicle: Klucel (hydroxypropylcellulose) (HPC) 91 % of control | dose: 100.0 mg/kg/injection, schedule: Q01DX009 (ip), vehicle: Klucel (hydroxypropylcellulose) (HPC) 86 % of control

Cc1ccc(C2(c3ccccc3)OC(=O)c3ccccc32)cc1 (stereo not drawn)
inactive: dose: 200.0 mg/kg/injection, schedule: Q01DX009 (ip), vehicle: saline sonified 95 % of control

O=C(O)/C=C/c1ccc(O)c(O)c1
inactive: [3] 101 % of control and 103 % of control | [4] 101 % of control and 118 % of control | [5] 102 % of control and 107 % of control | dose: 400.0 mg/kg/injection, schedule: Q01DX009 (ip), vehicle: saline 100 % of control and 103 % of control | dose: 600.0 mg/kg/injection, schedule: Q01DX009 (ip), vehicle: saline 116 % of control

COc1ccc(C(C)c2cc(OC)c(OC)cc2OC)cc1 (stereo not drawn)
inactive: [6] 102 % of control | [7] 102 % of control | [8] 105 % of control

O=C1c2ccc([N+](=O)[O-])cc2C(=O)N1CC[P+](c1ccccc1)(c1ccccc1)c1ccccc1
inactive: dose: 0.78 mg/kg/injection, schedule: Q01DX009 (ip), vehicle: water 100 % of control | dose: 1.56 mg/kg/injection, schedule: Q01DX009 (ip), vehicle: water 100 % of control | dose: 3.13 mg/kg/injection, schedule: Q01DX009 (ip), vehicle: water 103 % of control | dose: 6.25 mg/kg/injection, schedule: Q01DX009 (ip), vehicle: water 98 % of control | dose: 12.5 mg/kg/injection, schedule: Q01DX009 (ip), vehicle: water 98 % of control | dose: 25.0 mg/kg/injection, schedule: Q01DX009 (ip), vehicle: water 106 % of control and 107 % of control

Nc1ncnc2c1ncn2CCOCC(O)CO (stereo not drawn)
inactive: [6] 100 % of control | [7] 95 % of control | [8] 93 % of control

[O-]/[N+](=C\c1ccccc1)c1ccccc1
inactive: [9] 104 % of control | [10] 99 % of control

O=C(c1cccnc1)C(CCc1ccccn1)c1ccccn1 (stereo not drawn)
inactive: [1] 100 % of control | [2] 100 % of control

S=C1SC2=NCCN2C2=NCCN12
inactive: dose: 11.25 mg/kg/injection, schedule: Q01DX001 (ip), vehicle: Klucel (hydroxypropylcellulose) (HPC) 96 % of control | dose: 22.5 mg/kg/injection, schedule: Q01DX001 (ip), vehicle: Klucel (hydroxypropylcellulose) (HPC) 102 % of control | dose: 45.0 mg/kg/injection, schedule: Q01DX001 (ip), vehicle: Klucel (hydroxypropylcellulose) (HPC) 100 % of control

O=c1[nH]c(-c2ccc(O)cc2)cc2ccccc12
inactive: [11] 99 % of control | [12] 100 % of control | dose: 400.0 mg/kg/injection, schedule: Q04DX002 (ip), vehicle: saline with Tween-80 100 % of control

CC(C)[Si]1(C(C)C)N[Si](C(C)C)(C(C)C)N[Si](C(C)C)(C(C)C)N1
inactive: [13] 108 % of control | [14] 93 % of control | [15] 100 % of control

Cc1ccc(C(CC(=O)O)C(N)C(=O)O)cc1 (stereo not drawn)
inactive: dose: 12.5 mg/kg/injection, schedule: Q01DX009 (ip), vehicle: saline 98 % of control | dose: 25.0 mg/kg/injection, schedule: Q01DX009 (ip), vehicle: saline 88 % of control | [3] 95 % of control and 96 % of control | [4] 100 % of control | [5] 95 % of control

c1ccc(OC2CCCCC2N2CCOCC2)cc1 (stereo not drawn)
inactive: dose: 50.0 mg/kg/injection, schedule: Q01DX009 (ip), vehicle: suspension in saline 87 % of control | dose: 100.0 mg/kg/injection, schedule: Q01DX009 (ip), vehicle: suspension in saline 87 % of control | dose: 200.0 mg/kg/injection, schedule: Q01DX009 (ip), vehicle: suspension in saline 94 % of control

C=CCOc1cc2c(cc1C(C)c1ccc(OCC)cc1)OCO2 (stereo not drawn)
inactive: [16] 100 % of control and 104 % of control | [17] 112 % of control and 91 % of control | [18] 122 % of control and 123 % of control

O=c1[nH][nH]c(O)c1-c1ccc(-c2c(O)[nH][nH]c2=O)cc1
inactive: [19] 105 % of control | [20] 105 % of control | [21] 101 % of control

O=C1CSC(c2ccccc2O)N1c1ccc(N2C(=O)CSC2c2ccccc2O)cc1 (stereo not drawn)
inactive: dose: 100.0 mg/kg/injection, schedule: Q01DX001 (ip), vehicle: saline with Tween-80 90 % of control | dose: 200.0 mg/kg/injection, schedule: Q01DX001 (ip), vehicle: saline with Tween-80 87 % of control | dose: 400.0 mg/kg/injection, schedule: Q01DX001 (ip), vehicle: saline with Tween-80 87 % of control

CCCCCCC(O)C[N+](=O)[O-] (stereo not drawn)
inactive: dose: 5.56 mg/kg/injection, schedule: Q01DX009 (ip), vehicle: saline with Tween-80 102 % of control | dose: 8.33 mg/kg/injection, schedule: Q01DX009 (ip), vehicle: saline with Tween-80 110 % of control | dose: 12.5 mg/kg/injection, schedule: Q01DX009 (ip), vehicle: saline with Tween-80 117 % of control and 124 % of control | dose: 18.7 mg/kg/injection, schedule: Q01DX009 (ip), vehicle: saline with Tween-80 115 % of control | dose: 25.0 mg/kg/injection, schedule: Q01DX009 (ip), vehicle: saline with Tween-80 111 % of control | dose: 50.0 mg/kg/injection, schedule: Q01DX009 (ip), vehicle: saline with Tween-80 120 % of control

Cc1cc(NC(=O)Nc2cc(Cl)ccc2C)no1
inactive: [13] 87 % of control | [14] 93 % of control | [15] 93 % of control

CN1CC(O)c2cc(N=NC(N)=O)c(O)cc21 (stereo not drawn)
inactive: [19] 96 % of control | [20] 91 % of control | [21] 108 % of control

CO/C=N/c1cn2c(n1)CN=C2
inactive: dose: 100.0 mg/kg/injection, schedule: Q01DX001 (ip), vehicle: saline 102 % of control | dose: 200.0 mg/kg/injection, schedule: Q01DX001 (ip), vehicle: saline 95 % of control | dose: 400.0 mg/kg/injection, schedule: Q01DX001 (ip), vehicle: saline 96 % of control

CC1(C)OC(c2ccccc2)=CC1=O
inactive: [11] 101 % of control | [12] 101 % of control

O=C(Nc1ncn[nH]1)c1ccccc1O
inactive: [19] 99 % of control | [20] 91 % of control | [21] 86 % of control

CCOc1cc2c(cc1C(C)(C)c1ccccc1)OCO2
inactive: [16] 99 % of control | [17] 92 % of control | [18] 96 % of control

O=C(O)c1cccc(-c2nn[nH]n2)c1
inactive: [19] 93 % of control | [20] 90 % of control | [21] 102 % of control

CCCCCCCCCCCCCCCCOc1ccccc1CNc1cc(Cl)ccc1Cl
inactive: dose: 100.0 mg/kg/injection, schedule: Q01DX009 (ip), vehicle: saline with Tween-80 100 % of control | [9] 100 % of control | dose: 200.0 mg/kg/injection, schedule: Q01DX009 (ip), vehicle: saline with Tween-80 91 % of control | [10] 100 % of control | dose: 400.0 mg/kg/injection, schedule: Q01DX009 (ip), vehicle: saline with Tween-80 100 % of control | dose: 400.0 mg/kg/injection, schedule: Q04DX003 (ip), vehicle: saline with Tween-80 86 % of control

CC1=Cc2cc(C)cc(C)c2C1=O
inactive: [16] 90 % of control | [17] 93 % of control | [18] 96 % of control
